Source: patent US20240299360A1, “ADAMTS INHIBITORS, PREPARATION METHODS AND MEDICINAL USES THEREOF” (Jiangsu Hengrui Pharmaceuticals Co., Ltd., priority 2020, published 2024)

Experiments:
[1] = test system: mouse femoral head cartilage; test: Mouse explant assay (IL-1α induced GAG release); assay type: cell-based; details: inhibition of GAG release, IL-1α 1 ng/ml, 72 hours; for inhibition at 2 µM: compound 2 μM; for inhibition at 20 µM: compound 20 μM
Description: In this assay, fresh mouse femoral head cartilage was treated with IL-1α protein (Sigma-Aldrich, catalog #12778) in culture media, which induces the cartilage catabolism. Then, the GAGs attached to the cleaved aggrecan fragments (released in the media) and the GAGs attached to the intact aggrecan were measured by dimethylmethylene blue dye in the Glycosaminoglycans Assay Kit (Chondrex, catalog #6022).
Femoral head cartilage samples were isolated from mice (25 days old, male, C57BL/6, from Charles River Lab) and put into 2.0 ml tubes filled-up with media (DMEM, 10% FBS, 4 mM Glutamine, penicillin-streptomycin, 20 mM HEPES). Two hundred μl of media without FBS was added to each well of a 48-well plate, and one piece of cartilage was transferred to a well in the plate. Then the media was aspirated, and compounds and IL-1α protein were added to the plate in a total volume of 400 μl of fresh media without FBS. The final concentration of IL-1α was 1 ng/ml. The plate was incubated at 37° C. for 72 hours in a humidified incubator with 5% CO2 supply.
The supernatant was transferred to a 1.5 ml tube and kept at −20° C. Each cartilage sample was transferred to another 1.5 ml tube containing 400 μl of freshly made papain solution. The papain solution contained 125 μg/ml papain (Sigma-Aldrich, catalog #P3125), 0.1 M sodium acetate (Sigma-Aldrich, catalog #S7899), pH 5.5 and 5 mM EDTA and 5 mM L-cysteine-HCl (Sigma-Aldrich, catalog #C7880). The cartilage samples were kept rocking in a 60° C. water bath for 24 hours. The lysates were vortexed for 10 seconds and spinned at 10,000 rpm for 2 minutes.
Both the supernatant and the lysate samples were diluted with PBS and mixed with 100 μl of dye from the Glycosaminoglycans Assay Kit. The optical density from each well was determined with a TECAN plate reader set to a wavelength of 525 nm.
The concentrations of GAGs in the supernatant and lysates were determined based on the standard curve with a dose range of chondroitin sulfate provided in the kit. The percentage of GAG release was calculated as the following
The test compound effect was expressed as the percent of inhibition using the following formula: […]

[2] = target: T1, ADAMTS-5 recombinant protein (Homo sapiens (Human), UniProt Q9UNA0); test: In vitro ELISA of ADAMTS-5 activity (Aggrecan-IGD enzymatic assay); assay type: biochemical; details: aggrecan-IGD substrate, ARGSVIL-peptide ELISA, 37° C. 45 minutes
T1 sequence (Q9UNA0 262-622): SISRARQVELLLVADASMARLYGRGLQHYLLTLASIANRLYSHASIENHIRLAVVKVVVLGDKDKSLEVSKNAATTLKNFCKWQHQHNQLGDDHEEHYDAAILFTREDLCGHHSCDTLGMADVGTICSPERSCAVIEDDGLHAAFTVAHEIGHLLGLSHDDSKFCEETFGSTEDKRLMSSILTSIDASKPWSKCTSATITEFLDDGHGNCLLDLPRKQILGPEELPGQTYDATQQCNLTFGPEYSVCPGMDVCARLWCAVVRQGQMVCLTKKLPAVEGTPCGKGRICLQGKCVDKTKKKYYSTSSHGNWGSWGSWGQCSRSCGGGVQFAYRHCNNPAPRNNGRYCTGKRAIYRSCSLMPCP
Description: In this assay, the enzymatic activity of recombinant ADAMTS-5 protein (catalog #2198-AD, R&D Systems) was assayed with a protein substrate, the aggrecan IGD protein. The aggrecan IGD protein is a polypeptide connecting human aggrecan globular domains 1 and 2 (T331-G458) expressed in E. Coli with a C-terminal His-tag (catalog #30411000, BIOTEZ). The enzymatic product ARGSVIL-peptide was detected using an ELISA kit from BioTEZ (catalog #30510111).
An assay buffer containing 50 mM HEPES pH 7.5, 100 mM NaCl, 5 mM CaCl2), 0.1% CHAPS and 5% Glycerol was prepared. Recombinant ADAMTS-5 protein was diluted to 0.3 nM in the assay buffer. Ten μl of […] and 10 μl of compound solution was transferred to each well of a 96-well plate and incubated at room temperature for 15 minutes. Substrate aggrecan-IGD was diluted to 100 nM with the assay buffer and 20 μl was added to each well. The plate was incubated at 37° C. for 45 minutes. After incubation, the newly generated epitope ARGSVIL-peptides were measured using the Aggrecanase Activity ELISA Assay Kit following the manufacturer's instructions. Then, 100 μl of stop solution was added and the absorbance of each well was read at 450 nm, using […] as reference on a TECAN plate reader.
A standard curve of the ELISA assay was generated in GraphPad Prism using Sigmoidal 4PL function and the corresponding peptide concentrations were calculated based on the standard curve. The IC50 values were calculated using function “log (inhibitor) vs. response—Variable slope (four parameters)”. (See Table 2).

[3] = target: ADAMTS-4 recombinant protein (Homo sapiens (Human), UniProt O75173); test: In vitro fluorescence (FRET-peptide) enzymatic assay of ADAMTS-4 activity; assay type: biochemical; details: FRET peptide substrate 15 μM, 10 nM enzyme, 37° C. 3 hours
Sequence of ADAMTS-4 recombinant protein (O75173 213-685): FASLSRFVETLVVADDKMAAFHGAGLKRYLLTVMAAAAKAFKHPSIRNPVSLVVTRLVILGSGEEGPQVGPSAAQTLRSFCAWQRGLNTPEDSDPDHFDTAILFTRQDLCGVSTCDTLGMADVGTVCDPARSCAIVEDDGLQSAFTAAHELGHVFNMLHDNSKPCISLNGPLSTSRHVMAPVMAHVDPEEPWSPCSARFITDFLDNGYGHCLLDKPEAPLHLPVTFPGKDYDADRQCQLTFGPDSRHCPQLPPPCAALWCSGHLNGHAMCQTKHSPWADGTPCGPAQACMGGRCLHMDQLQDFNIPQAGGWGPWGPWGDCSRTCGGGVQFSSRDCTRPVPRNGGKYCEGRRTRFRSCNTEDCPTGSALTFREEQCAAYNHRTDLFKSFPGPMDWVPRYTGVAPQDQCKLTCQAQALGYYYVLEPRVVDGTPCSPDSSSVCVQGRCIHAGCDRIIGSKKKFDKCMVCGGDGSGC
Description: (§1) A FRET (fluorescence resonance energy transfer) peptide was cleaved by recombinant ADAMTS-4 or ADAMTS-5 proteins into two separate fragments resulting in an increase of fluorescence signal which was quantified. The peptide was 5-FAM-[…](5-TAMRA)K-NH2, customized from ANASPEC. ADAMTS-4 recombinant protein (catalog #4307-AD) and ADAMTS-5 recombinant protein (catalog #2198-AD) were purchased from R&D Systems.
(§2) An assay buffer containing 50 mM HEPES pH 7.5, 100 mM NaCl, 5 mM CaCl2, 0.1% CHAPS and 5% Glycerol was prepared. A volume of 2.5 μl of compound in the assay buffer was dispensed to a 384-well plate, and 2.5 μl of ADAMTS-4 or ADAMTS-5 protein (final concentration in the reaction was 10 nM) was added. The compounds and proteins were pre-incubated at room temperature for 15 minutes. Then, 5 μl of substrate was added to each well. The final substrate concentrations for ADAMTS-4 and ADAMTS-5 were 15 μM and 8 μM, respectively. The fluorescence signal in each well was determined, after incubation at 37° C. for 3 hours, on a TECAN plate reader (Excitation, 490 nm; Emission, 520 nm).
(§3) The data was inputted into GraphPad Prism, and the IC50 values were calculated using function “log (inhibitor) vs. response—Variable slope (four parameters)”. (See Table 1)

[4] = target: T1, ADAMTS-5 recombinant protein; test: In vitro fluorescence (FRET-peptide) enzymatic assay of ADAMTS-5 activity; assay type: biochemical; details: FRET peptide substrate 8 μM, 10 nM enzyme, 37° C. 3 hours
Description: as §1, §2, §3

SMILES | IC50 [2] [nM] | IC50 [3] [nM] | IC50 [4] [nM] | inhibition at 2 µM [1] [%] | inhibition at 20 µM [1] [%]
O=C1NC(=O)[C@](CCC(=O)N2Cc3ccc(C(F)(F)F)cc3C2)(C2CC2)N1 [Example 1, (S)-5-cyclopropyl-5-(3-oxo-3-(5-(trifluoromethyl)isoindolin-2-yl)propyl)imidazolidine-2,4-dione] | 140 | 60 | 88 | 27 | 61
COc1ccc2c(c1)CCN(C(=O)CC[C@@]1(C3CC3)NC(=O)NC1=O)CC2 [Example 5, (S)-5-cyclopropyl-5-(3-(7-methoxy-4,5-dihydro-1H-benzo [d]azepin-3 (2H)-yl)-3-oxopropyl)imidazolidine-2,4-dione] | 240 | 46 | 73 | 19 | 51
CC1CN(C(=O)CC[C@@]2(C3CC3)NC(=O)NC2=O)CCc2ccc(Cl)cc21 (stereo partly drawn) [Example 8, (5S)-5-(3-(8-chloro-1-methyl-4,5-dihydro-1H-benzo[d]azepin-3 (2H)-yl)-3-oxopropyl)-5-cyclopropylimidazolidine-2,4-dione] | 130 | 66 | 53 | 22 | 63
O=C1NC(=O)[C@](CCC(=O)N2CCc3ccccc3CC2)(C2CC2)N1 [Example 9, (S)-5-cyclopropyl-5-(3-(4,5-dihydro-1H-benzo[d]azepin-3 (2H)-yl)-3-oxopropyl)imidazolidine-2,4-dione] | 56 | 42 | 37 | 22 | 55
O=C1NC(=O)[C@](CCC(=O)N2Cc3cc(Cl)c(C(F)(F)F)cc3C2)(C2CC2)N1 [Example 40, (S)-5-(3-(5-chloro-6-(trifluoromethyl)isoindolin-2-yl)-3-oxopropyl)-5-cyclopropylimidazolidine-2,4-dione] | 92 | 42 | 25 | 2 | 52
O=C1NC(=O)[C@](CCC(=O)N2Cc3ccc(C(F)F)cc3C2)(C2CC2)N1 [Example 52, (S)-5-cyclopropyl-5-(3-(5-(difluoromethyl)isoindolin-2-yl)-3-oxopropyl)imidazolidine-2,4-dione] | 48 | 30 | 66 | 10 | 48
O=C1NC(=O)[C@](CCC(=O)N2Cc3cc(Br)c(C(F)(F)F)cc3C2)(C2CC2)N1 [Example 59, (S)-5-(3-(5-bromo-6-(trifluoromethyl)isoindolin-2-yl)-3-oxopropyl)-5-cyclopropylimidazolidine-2,4-dione] | 46 | 82 | 46 | 16 | 66
[2H]C1([2H])c2cc(Cl)c(Cl)cc2C([2H])([2H])N1C(=O)CC[C@@]1(C2CC2)NC(=O)NC1=O [Example 80, (S)-5-cyclopropyl-5-(3-(5,6-dichloroisoindolin-2-yl-1,1,3,3-d4)-3-oxopropyl)imidazolidine-2,4-dione] | – | 28 | 32 | 30 | 73
Cc1nc(C2(CCC(=O)N3Cc4cc(Cl)c(C(F)(F)F)cc4C3)NC(=O)NC2=O)co1 (stereo not shown) [Example 81, 5-(3-(5-chloro-6-(trifluoromethyl)isoindolin-2-yl)-3-oxopropyl)-5-(2-methyloxazol-4-yl)imidazolidine-2,4-dione] | 120 | 260 | 77 | – | –

Molecules with a lower IC50 [3], results first:

IC50 [2] [nM] | IC50 [3] [nM] | IC50 [4] [nM] | SMILES | inhibition at 2 µM [1] [%] | inhibition at 20 µM [1] [%]
– | 22 | 37 | O=C1NC(=O)[C@](CCC(=O)N2Cc3cc(Cl)c(Cl)cc3C2)(C2CC2)N1 [Example 20, (S)-5-cyclopropyl-5-(3-(5,6-dichloroisoindolin-2-yl)-3-oxopropyl)imidazolidine-2,4-dione] | 67 | 100
– | 20 | 16 | C[C@H]1CN(C(=O)CC[C@@]2(C3CC3)NC(=O)NC2=O)CCc2ccc(Cl)cc21 [Example 21, (S)-5-(3-((R)-8-chloro-1-methyl-1,2,4,5-tetrahydro-3H-benzo[d]azepin-3-yl)-3-oxopropyl)-5-cyclopropylimidazolidine-2,4-dione] | 39 | 100
17 | 11 | 14 | O=C1NC(=O)C(CC(CO)C(=O)N2Cc3cc(Cl)c(Cl)cc3C2)(C2CC2)N1 (stereo not shown) [Example 42, 5-cyclopropyl-5-(3-(5,6-dichloroisoindolin-2-yl)-2-(hydroxymethyl)-3-oxopropyl)imidazolidine-2,4-dione] | 51 | 92
51 | 15 | 37 | O=C1NC(=O)[C@](CCC(=O)N2CCc3ccc(F)cc3CC2)(C2CC2)N1 [Example 44, (S)-5-cyclopropyl-5-(3-(7-fluoro-1,2,4,5-tetrahydro-3H-benzo[d]azepin-3-yl)-3-oxopropyl)imidazolidine-2,4-dione] | 13 | 70
25 | 19 | 12 | O=C1NC(=O)[C@](CCC(=O)N2CCc3ccc(C(F)(F)F)cc3CC2)(C2CC2)N1 [Example 45, (S)-5-cyclopropyl-5-(3-oxo-3-(7-(trifluoromethyl)-1,2,4,5-tetrahydro-3H-benzo[d]azepin-3-yl)propyl)imidazolidine-2,4-dione] | 45 | 96
19 | 12 | 10 | C[C@@H]1c2cc(Cl)c(Cl)cc2CN1C(=O)CC[C@@]1(C2CC2)NC(=O)NC1=O [Example 66-2, (S)-5-cyclopropyl-5-(3-((R)-5,6-dichloro-1-methylisoindolin-2-yl)-3-oxopropyl)imidazolidine-2,4-dione] | 23 | 87
